Test results as given in patent US20160002248A1, “GLS1 INHIBITORS FOR TREATING DISEASE” (Board of Regents, The University of Texas System, priority 2014, published 2016).
pEC50, pIC50: −log10 of the molar value.

Legend:
A549 cells = experiment: Proliferation Assay (A549 cell viability, Cell Titer Fluor); format: cell-based; settings: 72 hours
Outline: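 1000 A549 cells/well, RPMI 1640/10% dialyzed FBS, 24 h attach; compound 72 h, 0.5% DMSO, 37 °C/5% CO2; Cell Titer Fluor fluorescence; EC50 via 4-parameter logistic.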

[1] = biological target: T1, purified recombinant human GAC (GLS1) (Homo sapiens, UniProt O94925); experiment: GLS1 Enzymatic Activity Assay (dual-coupled enzymatic assay); format: biochemical
T1 sequence (O94925 55-598 isoform O94925-3 limits assumed): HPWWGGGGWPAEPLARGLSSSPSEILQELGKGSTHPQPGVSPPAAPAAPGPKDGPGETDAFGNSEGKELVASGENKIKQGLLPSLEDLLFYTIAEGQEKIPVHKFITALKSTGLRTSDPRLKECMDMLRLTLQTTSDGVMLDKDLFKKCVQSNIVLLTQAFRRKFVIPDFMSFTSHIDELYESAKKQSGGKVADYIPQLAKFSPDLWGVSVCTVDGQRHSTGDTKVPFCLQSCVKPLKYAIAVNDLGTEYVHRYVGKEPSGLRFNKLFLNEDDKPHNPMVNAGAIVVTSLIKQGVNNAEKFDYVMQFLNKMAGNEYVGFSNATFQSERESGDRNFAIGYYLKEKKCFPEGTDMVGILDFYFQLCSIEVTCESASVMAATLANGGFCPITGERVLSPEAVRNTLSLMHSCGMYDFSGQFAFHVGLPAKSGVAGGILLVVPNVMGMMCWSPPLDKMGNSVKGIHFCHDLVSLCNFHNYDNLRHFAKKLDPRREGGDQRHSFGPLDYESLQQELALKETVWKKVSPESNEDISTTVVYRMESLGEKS
Outline: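 In this coupled fluorometric format, phosphate-activated GAC (2 nM, 50 mM phosphate) is pre-exposed to compound for 10 min before 1 mM glutamine addition. Product is tracked as resorufin (530/590 nm) over time or at 20 min, and potency is derived by logistic fitting.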

Row | pEC50 (A549 cells; Homo sapiens) | pIC50 [1] | pEC50 (A549 cells) | Compound
1 | 6.30 to 7.00 | > 7.00 | – | O=C(NCc1ccccn1)c1cn(CC(F)CCc2cc3cc(-c4ccccc4F)[nH]c3nn2)nn1 (centres unmarked) [Example 242, 1-{2-fluoro-4-[6-(2-fluorophenyl)-7H-pyrrolo[2,3-c]pyridazin-3-yl]butyl}-N-(pyridin-2-ylmethyl)-1H-1,2,3-triazole-4-carboxamide]
2 | 5.30 to 6.30 | 6.30 to 7.00 | – | CNC(=O)c1cn(CC(F)CCc2cc3cc(-c4ccccc4F)[nH]c3nn2)nn1 (centres unmarked) [Example 243, 1-{2-fluoro-4-[6-(2-fluorophenyl)-7H-pyrrolo[2,3-c]pyridazin-3-yl]butyl}-N-methyl-1H-1,2,3-triazole-4-carboxamide]
3 | > 7.00 | > 7.00 | – | O=C(NCc1cc(C2CC2)ccn1)c1cn(CC(F)CCc2cc3cc(-c4ccccc4F)[nH]c3nn2)nn1 (centres unmarked) [Example 244, N-[(4-cyclopropylpyridin-2-yl)methyl]-1-{2-fluoro-4-[6-(2-fluorophenyl)-7H-pyrrolo[2,3-c]pyridazin-3-yl]butyl}-1H-1,2,3-triazole-4-carboxamide]
4 | – | > 7.00 | 5.30 to 6.30 | N-(5-(4-(7H-pyrrolo[2,3-c]pyridazin-3-yl)butyl)-1,3,4-thiadiazol-2-yl)-2-phenylacetamide [Example 64]
